In paper PMC7506137, “Selective Phosphodiesterase 1 Inhibitor BTTQ Reduces Blood Pressure in Spontaneously Hypertensive and Dahl Salt Sensitive Rats: Role of Peripheral Vasodilation” (Frontiers in Physiology, 2020):
Where “and” joins values, the source holds several entries; their conditions need not be identical. Identical values can stand only once. Like-named read-outs stand apart in the source and are kept apart here.

Test: Plasma exposure (dried blood spot) after single oral dose
Format: in vivo
Conditions: rat; for concentration at 5 h / concentration at 6 h / concentration at 24 h: Sprague Dawley, po, 3 mg/kg, oral 3 mg/kg; for concentration at 24 h / Unbound Concentration, individual animals / Concentration, individual animals: 24 h
Procedure: Male Sprague Dawley rats at 6 to 7 weeks were dosed orally by p.o. gavage with different doses of BTTQ formulated in 1% hydroxyethlycellulose (Dow Corning, Midland, MI, United States) (w/v), 0.25% polysorbate 80 (Sigma-Aldrich, St. Louis, MO, United States) (v/v), and 0.05% antifoam (v/v; Dow Corning, Midland, MI, United States) in purified water. Following dosing, ear temperature was measured by using a k-type thermocouple probe digital thermometer (Cole Parmer) every hour for 6 h and then at 24 h. Blood samples for plasma exposure measurement were obtained at the same time. Blood was collected via a tail snip directly into a 20-μL EDTA-coated capillary and immediately spotted onto a Whatman DMPK-C DBS card (GE Healthcare Bio-Sciences). Tail snips were performed by removing approximately 1 mm of the tail by using a scalpel. Blood flow was initiated by gentle squeezing of the tail. No analgesia or anesthesia was used during blood collections. A single sample and spot were collected per time point. The DBS cards were allowed to dry for approximately 2 h at room temperature, after which the cards were placed in a zip-top bag, stored, and shipped at ambient temperature.

Compound: O=c1c2nnc(C3(C4CC4)CC3)n2c2c(n1CC1CC1)CCCC2 [BTTQ, 1-[1,1′-bi(cyclopropyl)-1-yl]-5-(cyclopropylmethyl)-6,7,8,9-tetrahydro[1,2,4]triazolo[4,3-A]quinoxaline-4(5H)-one]
- concentration at 5 h (male, whole blood (dried blood spot), 5 h, dried blood spot, read-out: Concentration, Mean): 2.17 µM
- concentration at 5 h (male, whole blood (dried blood spot), 5 h, dried blood spot, read-out: Concentration, individual animals): 2.68 µM
- concentration at 6 h (male, whole blood (dried blood spot), 6 h, FU 0.053, read-out: Unbound Concentration, Mean): 0.0935 µM
- concentration at 6 h (male, whole blood (dried blood spot), 6 h, FU 0.053, read-out: Unbound Concentration, individual animals): 0.0981 µM
- concentration at 6 h (male, whole blood (dried blood spot), 6 h, dried blood spot, read-out: Concentration, Mean): 1.76 µM
- concentration at 6 h (male, whole blood (dried blood spot), 6 h, dried blood spot, read-out: Concentration, individual animals): 1.85 µM
- concentration at 24 h (male, whole blood (dried blood spot), FU 0.053, read-out: Unbound Concentration, Mean): 0.005 µM
- concentration at 24 h (male, whole blood (dried blood spot), dried blood spot, read-out: Concentration, Mean): 0.0942 µM
- half-life (male, whole blood (dried blood spot), after oral administration, Sprague Dawley rats): ~4 h
- concentration at 4 h (oral 0.03 mg/kg, 5 h, FU 0.053, 0.03 mg/kg, read-out: Unbound Concentration, individual animals): 1.35 nM and 1.39 nM (2×) and 1.51 nM
- concentration at 4 h (oral 0.03 mg/kg, 5 h, dried blood spot, 0.03 mg/kg, read-out: Concentration, individual animals): 25.4 nM and 26.3 nM and 28.4 nM and 26.2 nM
- concentration at 4 h (oral 0.03 mg/kg, 6 h, FU 0.053, 0.03 mg/kg, read-out: Unbound Concentration, individual animals): 1.93 nM and 0.917 nM and 0.906 nM and 0.938 nM and 1.13 nM
- concentration at 4 h (oral 0.03 mg/kg, 6 h, dried blood spot, 0.03 mg/kg, read-out: Concentration, individual animals): 36.4 nM and 17.3 nM and 17.1 nM and 17.7 nM and 21.4 nM
- Unbound Concentration, individual animals (oral 0.03 mg/kg, FU 0.053): BQL
- Concentration, individual animals (oral 0.03 mg/kg, dried blood spot): BQL
- concentration at 4 h (oral 0.1 mg/kg, 1 h, FU 0.053, 0.1 mg/kg, read-out: Unbound Concentration, individual animals): 12.1 nM and 9.12 nM and 9.54 nM and 9.28 nM
- concentration at 4 h (oral 0.1 mg/kg, 1 h, dried blood spot, 0.1 mg/kg, read-out: Concentration, individual animals): 229 nM and 172 nM and 180 nM and 175 nM
- concentration at 4 h (oral 0.1 mg/kg, 2 h, FU 0.053, 0.1 mg/kg, read-out: Unbound Concentration, individual animals): 10.2 nM and 10.1 nM and 8.9 nM and 9.22 nM
- concentration at 4 h (oral 0.1 mg/kg, 2 h, dried blood spot, 0.1 mg/kg, read-out: Concentration, individual animals): 193 nM and 190 nM and 168 nM and 174 nM
- concentration at 4 h (oral 0.1 mg/kg, 3 h, FU 0.053, 0.1 mg/kg, read-out: Unbound Concentration, individual animals): 8.96 nM and 9.91 nM and 7.63 nM and 9.49 nM
- concentration at 4 h (oral 0.1 mg/kg, 3 h, dried blood spot, 0.1 mg/kg, read-out: Concentration, individual animals): 169 nM and 187 nM and 144 nM and 179 nM
- concentration at 4 h (oral 0.1 mg/kg, 4 h, FU 0.053, 0.1 mg/kg, read-out: Unbound Concentration, individual animals): 7.05 nM and 7.21 nM and 4.67 nM and 7.74 nM
- concentration at 4 h (oral 0.1 mg/kg, 4 h, dried blood spot, 0.1 mg/kg, read-out: Concentration, individual animals): 133 nM and 136 nM and 88.1 nM and 146 nM
- concentration at 4 h (oral 0.1 mg/kg, 5 h, FU 0.053, 0.1 mg/kg, read-out: Unbound Concentration, individual animals): 5.35 nM and 4.7 nM and 3.91 nM and 5.72 nM
- concentration at 4 h (oral 0.1 mg/kg, 5 h, dried blood spot, 0.1 mg/kg, read-out: Concentration, individual animals): 101 nM and 88.7 nM and 73.7 nM and 108 nM
- concentration at 4 h (oral 0.1 mg/kg, 6 h, FU 0.053, 0.1 mg/kg, read-out: Unbound Concentration, individual animals): 5.83 nM and 4.21 nM and 3.48 nM and 4.92 nM
- concentration at 4 h (oral 0.1 mg/kg, 6 h, dried blood spot, 0.1 mg/kg, read-out: Concentration, individual animals): 110 nM and 79.5 nM and 65.7 nM and 92.8 nM
- Unbound Concentration, individual animals (oral 0.1 mg/kg, FU 0.053, 0.1 mg/kg): BQL
- Concentration, individual animals (oral 0.1 mg/kg, dried blood spot, 0.1 mg/kg): BQL
- concentration at 4 h (oral 0.3 mg/kg, 1 h, FU 0.053, 0.3 mg/kg, read-out: Unbound Concentration, individual animals): 19.2 nM and 31.4 nM and 33.8 nM and 30 nM
- concentration at 4 h (oral 0.3 mg/kg, 1 h, dried blood spot, 0.3 mg/kg, read-out: Concentration, individual animals): 362 nM and 593 nM and 638 nM and 566 nM
- concentration at 4 h (oral 0.3 mg/kg, 2 h, FU 0.053, 0.3 mg/kg, read-out: Unbound Concentration, individual animals): 25.4 nM and 27.8 nM and 21 nM and 25 nM
- concentration at 4 h (oral 0.3 mg/kg, 2 h, dried blood spot, 0.3 mg/kg, read-out: Concentration, individual animals): 479 nM and 525 nM and 397 nM and 472 nM
- concentration at 4 h (oral 0.3 mg/kg, 3 h, FU 0.053, 0.3 mg/kg, read-out: Unbound Concentration, individual animals): 14.8 nM and 17.4 nM and 17.1 nM and 19.2 nM
- concentration at 4 h (oral 0.3 mg/kg, 3 h, dried blood spot, 0.3 mg/kg, read-out: Concentration, individual animals): 280 nM and 328 nM and 323 nM and 363 nM
- concentration at 4 h (oral 0.3 mg/kg, 4 h, FU 0.053, 0.3 mg/kg, read-out: Unbound Concentration, individual animals): 12.1 nM (2×) and 11.3 nM and 11.1 nM
- concentration at 4 h (oral 0.3 mg/kg, 4 h, dried blood spot, 0.3 mg/kg, read-out: Concentration, individual animals): 229 nM (2×) and 213 nM and 210 nM
- concentration at 4 h (oral 0.3 mg/kg, 5 h, FU 0.053, 0.3 mg/kg, read-out: Unbound Concentration, individual animals): 8 nM
- Unbound Concentration, individual animals (oral 0.3 mg/kg, FU 0.053): BQL
- Concentration, individual animals (oral 0.3 mg/kg, dried blood spot): BQL
